The test system of this assay is Staphylococcus epidermidis. In words: Antimicrobial activity against Staphylococcus epidermidis at 50 ug/spot by agar overlay method. The assay is classed as functional, organism-based.

The record followed here is ChEMBL document CHEMBL1141856, “Iridoid glycosides of Leonurus persicus” (J Nat Prod, 1999).

The source made the active and inactive calls. No cut-off for these calls is given here.

For the compound `COc1cc(/C=C/C(=O)O[C@H]2[C@H](O[C@@H]3O[C@@H](C)[C@H](O)[C@@H](O)[C@H]3O)[C@@H](O)[C@H](OCCc3ccc(O)c(O)c3)O[C@@H]2CO)ccc1O`, the outcome was Active.
